For assay [1], the system named is Dopaminstoffwechsel im Striatum. As to the kind of experiment: In vivo differential pulse voltammetry of the DOPAC signal in the striatum after unilateral intranigral injection. On the set-up: species or system Ratte. Particulars: for DOPAC-Signal im ipsilateralen Striatum: 10 µg in 2 µl intranigral, before L-DOPA. The text has this:
Die 1-Trichlormethyl-β-carboline TaClo und N-Me-TaClo wurden im Vergleich zu den bekannten Neurotoxinen MPTP und MPP^+, wie folgt, auf ihre neurotoxische Wirkung überprüft. Die zu untersuchenden Substanzen (TaClo, N-Me-TaClo, DDH-TaFlu, TaBro, MPTP und MPP^+) wurden unter Narkose mit einer Mikroglaskapillare stereotaktisch nach Koordinaten (A: 4,0 mm; L: 1,9 mm; V: 2,0 mm; ab Interaurallinie) von Paxinos und Watson (1982) unilateral in die rechte Substantia nigra pars compacta der Ratte (Han-Wistar, Zentralinstitut für Versuchstierzucht, Hannover, 250-300 g) injiziert. Appliziert wurde ein Volumen von 2 µl über einen Zeitraum von 15 Minuten.
Im Striatum, dem Projektionsareal der nigralen dopaminergen Neurone, wurde 1 und/oder 3 Wochen nach Applikation der Substanzen der Transmitterstoffwechsel untersucht. Die Untersuchung des Dopaminstoffwechsels wurde dabei in beiden Striata, dem linken Striatum, Projektionsgebiet der unbehandelten linken Substantia nigra, und dem rechten Striatum, Projektionsgebiet der behandelten rechten Substantia nigra, durchgeführt. Die Messung des Dopaminstoffwechsels erfolgte mit Hilfe der in vivo differentiellen Pulsvoltametrie (DPV) mit Mikrokohlefaserelektroden, wie sie 1980 von Gonon beschrieben wurde (Gonon et al., 1980). Dabei werden die extrazellulären Spiegel an 3,4-Dihydroxyphenylessigsäure (DOPAC) erfaßt, einem Metaboliten des Transmitters Dopamin. Die Messung wurde am narkotisierten Tier durchgeführt. Die stereotaktische Implantation von 2 Elektroden (rechtes und linkes Striatum) erfolgte nach Koordinaten (A: 8,5 mm; L: ± 3,5 mm; V: 4,5 mm; ab Interaurallinie) von Paxinos und Watson (Paxinos und Watson, 1982). Die voltametrischen Messungen wurden im Abstand von 8 Minuten durchgeführt. 40 Minuten nach Beginn der Messungen applizierte man den Tieren L-DOPA (100 mg/kg i.p.), um die Restitutionsfähigkeit des Dopaminstoffwechsels durch dieses Anti-Parkinsonmittel zu überprüfen.

For assay [2], the system named is Substantia nigra pars compacta. The assay is described as follows: Histology of the substantia nigra pars compacta after unilateral intranigral injection (neuron count, tyrosine hydroxylase staining). It is filed as in vivo, Ratte. The text has this:
Die ersten Untersuchungen von drei mit TaClo behandelten Ratten mit quantitativer Auswertung der Substantia nigra pars compacta zeigen, daß TaClo, in einer Konzentration von 0.03 µmol einseitig in die Substantia nigra injiziert, bereits nach einer Woche zu einer eindeutigen Reduktion der Neuronenzahl von 12% auf der läsionierten Seite führt. 6-OHDA, in einer annähernd doppelt so hohen Konzentration von 0.05 µmol injiziert, bewirkt einen 51% Abfall der Neuronenzahl.
Nach Anfärbung der Tyrosinhydroxylase mittels Antikörpern zur Darstellung dopaminerger Neurone zeichnen sich pathologische Veränderungen ab, die nach Behandlung mit TaClo auf der läsionierten Seite zu 3 - 6% nekrotischem Gewebsanteil am Gesamtvolumen führen. Bei 6-OHDA beträgt dieser Anteil 25%.

In another assay the test system is dopaminerge Rezeptoren. As to the kind of experiment: Apomorphine test (Ungerstedt): locomotor activity after subchronic TaClo i.p. Format: in vivo, Ratte. The note with it: TaClo (Hydrochlorid) 0.2 mg/kg i.p. for four weeks, then apomorphine s.c. How it is done: Eine durch Neurotoxine verursachte Denervation des postsynaptischen Rezeptors im dopaminergen System führt zu einer Rezeptorüberempfindlichkeit. Dadurch wird die Reaktion gegenüber verabreichten DA-Agonisten (z.B. Apomorphin) größer. Zur Überprüfung einer z.B. TaClo-bedingten Überempfindlichkeit dopaminerger Rezeptoren wird der Apomorphin-Test nach Ungerstedt (Ungerstedt et al., 1971) benutzt. Dieser läßt nach s.c. Injektion von 0.4 oder 2 mg/kg Apomorphin bei einseitiger Läsion des dopaminergen Systems im Versuchstier in den für die Entstehung des Morbus Parkinson ausschlaggebenden Basalganglien contralaterale Drehungen erkennen und nach mehr oder weniger beidseitiger Schädigung dopaminerger Strukturen bei geringem Schädigungsgrad vermehrte, bei hohem Schädigungsgrad verminderte Lokomotion im Vergleich zum Kontrollkollektiv sichtbar werden.
Die Verhaltensbeobachtungen fanden während und nach einstündiger Adaption in Beobachtungskäfigen statt. Die Aufzeichnung einzelner spezifischer Parameter wie gelaufene Wegstrecke [DT], Zeit ambulatorischer Bewegungen [AT], Anzahl stereotyper Bewegungen [BMS] und Zeiten stereotyper Bewegungen erfolgte automatisch. […]

Assay [3] deals with Tyrosinhydroxylase-immunoreaktive Neuronen (TH-IR). The assay is described as follows: Primary neuron cell culture: number and morphology of TH-IR neurons after 24 h. Format: cell-based. Particulars: for Zahl der TH-IR Zellen/ Kulturschale: added on culture day 9, mean ± S.D. The text has this: (§1) In der Zellkultur zeigen 1-Trichlormethyl-β-carboline neurotoxische Eigenschaften, die mit denen von MPP^+ bzw. MPTP, den bisher bestuntersuchten dopaminergen Neurotoxinen, vergleichbar sind. Das neurotoxische Potential der chlorierten β-Carboline wurde daher mit Methoden untersucht, die sich beim Studium der Wirkung von MPTP und seiner Analoga bewährt haben (Koutsilieri et al., 1993; Michel et al., 1990; Sanchez-Ramos et al., 1988) Deutliche degenerative Veränderungen sind in vitro im Akutversuch bei einer Einwirkungszeit von 24 Stunden ab einer Konzentration von 10 - 100 µM feststellbar. Die Substanzen führen zum Zelltod dopaminerger Primärzellen aus dem Mesencephalon - Zellen, die den bei Morbus Parkinson betroffenen Neuronen des Menschen entsprechen. Dem Zelltod dieser immunhistochemisch eindeutig charakterisierten Neuronen (Antikörper auf Tyrosinhydroxylase) gehen morphologische Veränderungen der Zellen voraus. Dabei nimmt die Gesamt-Zelloberfläche ab, die Dendriten und Axone, (zuerst die sekundären und dann die primären Zellfortsätze) gehen verloren. Diese histologischen Befunde (vgl. auch Tabelle 2) wurden durch bildgebende Verfahren erhärtet und quantifiziert. Die 1-Trichlormethyl-β-carboline zeigen auch toxische Eigenschaften in Gliazellkulturen, wie durch histologische Befunde nachgewiesen werden konnte. Für die Gruppe der 1-Trichlormethyl-β-carboline läßt sich eine Beeinflussung der synaptischen Transmitterkonzentration erwarten, wie an Versuchen mit der Grundstruktur TaClo nachgewiesen werden konnte, deren Zusatz konzentrationsabhängig (IC50 50 µM) zu einer Freisetzung von Dopamin aus den Zellkulturen führt. Dies wurde durch Dopaminbestimmung in den Kulturen mit Hilfe der Hochdruckflüssigkeitschromatographie und elektrochemischer Detektion nachgewiesen. Der Einsatz von ^3H-markiertem Dopamin für Aufnahmestudien weist eine Interaktion der 1-Trichlormethyl-β-carboline mit den Dopaminaufnahmestellen in Zellkulturen nach, die eine wichtige Voraussetzung für die Aufnahme dieser Substanzen in das dopaminerge Neuron und die Entfaltung der neurotoxischen Wirkung darstellen (IC50 für TaClo 100 µM) (vgl. Tabelle 2).

The test system of assay [4] is dopaminerge Primärzellen aus dem Mesencephalon. As to the kind of experiment: Dopamine content / dopamine release in the cell cultures (HPLC with electrochemical detection). The note with it: for Dopamingehalt: 24 h, mean ± S.D. Format: cell-based.
Source text: as §1, with “Der Einsatz von ^3H-markiertem Dopamin für Aufnahmestudien weist eine Interaktion der 1-Trichlormethyl-β-carboline mit den Dopaminaufnahmestellen in Zellkulturen nach, die eine wichtige Voraussetzung für die Aufnahme dieser Substanzen in das dopaminerge Neuron und die Entfaltung der neurotoxischen Wirkung darstellen (IC50 für TaClo 100 µM) (vgl. Tabelle 2).” left out

For another assay, the target named is Dopaminaufnahmestellen (Mus musculus, UniProt Q61327). The assay is described as follows: 3H-dopamine uptake in cell cultures. The note with it: 24 h, mean ± S.D. It is filed as cell-based.
Source text: as §1, with “Der Einsatz von ^3H-markiertem Dopamin für Aufnahmestudien weist eine Interaktion der 1-Trichlormethyl-β-carboline mit den Dopaminaufnahmestellen in Zellkulturen nach, die eine wichtige Voraussetzung für die Aufnahme dieser Substanzen in das dopaminerge Neuron und die Entfaltung der neurotoxischen Wirkung darstellen (IC50 für TaClo 100 µM) (vgl. Tabelle 2).” left out

Sequence of Dopaminaufnahmestellen (Q61327 whole entry): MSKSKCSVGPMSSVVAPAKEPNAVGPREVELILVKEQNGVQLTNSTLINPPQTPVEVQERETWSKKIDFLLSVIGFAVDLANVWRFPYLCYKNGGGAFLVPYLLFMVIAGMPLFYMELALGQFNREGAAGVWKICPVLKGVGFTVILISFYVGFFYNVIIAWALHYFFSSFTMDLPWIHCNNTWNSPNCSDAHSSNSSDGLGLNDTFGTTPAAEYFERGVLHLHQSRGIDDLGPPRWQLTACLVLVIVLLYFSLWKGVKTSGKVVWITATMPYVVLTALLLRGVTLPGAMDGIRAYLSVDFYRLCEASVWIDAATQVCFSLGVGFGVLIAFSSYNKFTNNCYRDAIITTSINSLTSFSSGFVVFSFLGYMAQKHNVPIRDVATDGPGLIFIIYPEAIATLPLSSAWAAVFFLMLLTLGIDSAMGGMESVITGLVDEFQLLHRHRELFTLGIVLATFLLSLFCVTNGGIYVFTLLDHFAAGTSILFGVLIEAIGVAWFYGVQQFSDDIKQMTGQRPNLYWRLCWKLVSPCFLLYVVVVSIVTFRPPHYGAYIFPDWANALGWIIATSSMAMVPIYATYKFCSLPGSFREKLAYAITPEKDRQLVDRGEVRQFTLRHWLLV

On to `C[n+]1ccc(-c2ccccc2)cc1` [MPP^+, 1-Methyl-4-Phenylpyridinium, reference compound], for which, in assay [1] (MPP^+ 30 µg in 2 µl intranigral, 1 and 3 weeks), the “DOPAC-Signal auf der injizierten Seite” value is listed as “hochsignifikante (p < 0.01) langanhaltende Verringerung des DOPAC-Signals”. Further, the “Restitutionsfähigkeit des dopaminergen Systems durch DOPA” value in assay [1] (MPP^+ 30 µg in 2 µl intranigral, 1 week, L-DOPA 100 mg/kg i.p.) is listed as “mangelnde Restitutionsfähigkeit”.

Regarding `CN1CCc2c([nH]c3ccccc23)C1C(Cl)(Cl)Cl` (centres unmarked) [N-Me-TaClo], the “DOPAC-Signal im ipsilateralen Striatum” value in assay [1] (1 week) and in assay [1] (3 weeks) was “signifikant” throughout.

Turning to `NCCc1cc(O)c(O)cc1O` [6-OHDA, 6-hydroxydopamine, reference compound], in assay [2] (0.05 µmol injected), the “Abfall der Neuronenzahl” value is on record as 51%. In assay [2] (6-OHDA (0.05 µmol), tyrosine hydroxylase antibody staining), the “nekrotischer Gewebsanteil am Gesamtvolumen” value is 25%.

With `FC(F)(F)C1=NCCc2c1[nH]c1ccccc21` [DDH-TaFlu, 1-Trifluormethyl-3,4-didehydro-β-carbolin], in assay [1] (1 week), the “DOPAC-Signal im ipsilateralen Striatum” value is listed as “stärkere Reduktion des DOPAC-Signals”.

In the case of `ClC(Cl)(Cl)C1NCCc2c1[nH]c1ccccc21` (racemic) [TaClo], the “lokomotorische Aktivität nach Apomorphin” value in the assay on dopaminerge Rezeptoren is “stieg nach der kleineren Dosierung signifikant an”. Moreover, the “DOPAC-Signal im ipsilateralen Striatum” value in assay [1] (1 week) and in assay [1] (3 weeks) was “signifikant geringere DOPAC-Konzentration” throughout. Besides, in assay [2] (0.03 µmol injected unilaterally into the substantia nigra, after one week, three rats), the “Reduktion der Neuronenzahl auf der läsionierten Seite” value worked out at 12%. For the same molecule, the “nekrotischer Gewebsanteil am Gesamtvolumen auf der läsionierten Seite” value in assay [2] (TaClo treatment (0.03 µmol), tyrosine hydroxylase antibody staining) is on record as 3 - 6%. Besides, the “Zahl der TH-IR Zellen/ Kulturschale” value was determined as 172 ± 69 in assay [3] (TaClo 10 µM), 164 ± 67 in assay [3] (TaClo 25 µM) and 128 ± 47 in assay [3] (TaClo 50 µM). Besides, the “Länge der Fortsätze” value in assay [3] (TaClo 10 µM, mean ± S.D.) is recorded as 80 ± 20 µm; in assay [3] (TaClo 25 µM, mean ± S.D.), 70 ± 20 µm; in assay [3] (TaClo 50 µM, mean ± S.D.), 70 ± 30 µm. For the same molecule, the “Zahl der primären Fortsätze” value in assay [3] (TaClo 10 µM, mean ± S.D.) is 3.1 ± 1.1; in assay [3] (TaClo 25 µM, mean ± S.D.), 2.9 ± 1.0; in assay [3] (TaClo 50 µM, mean ± S.D.), 2.6 ± 1.3. Further, the “Zahl der sekundären Fortsätze” value in assay [3] (TaClo 10 µM, mean ± S.D.) was 2.6 ± 1.6. For the same molecule, the Zellfläche in assay [3] (TaClo 10 µM, mean ± S.D.) stood at 180 ± 49 µm^2; in assay [3] (TaClo 25 µM, mean ± S.D.), 192 ± 47 µm^2; in assay [3] (TaClo 50 µM, mean ± S.D.) it was 159 ± 18 µm^2; in assay [3] (TaClo 100 µM, mean ± S.D.), 185 ± 43 µm^2. In addition, the Dopamingehalt in assay [4] (TaClo 10 µM) is listed as 0.7 ± 0.2 pmoles/ Kulturschale; in assay [4] (TaClo 25 µM), 0.6 ± 0.2 pmoles/ Kulturschale. Also, the 50% inhibitory concentration (IC50) (commonly the midpoint of a concentration-inhibition curve) in assay [4] (concentration dependent, dopamine determined by HPLC with electrochemical detection, read-out: IC50 Freisetzung von Dopamin aus den Zellkulturen) came to 50 µM. Also, the “^3H-DA uptake” value on Dopaminaufnahmestellen (TaClo 10 µM), on Dopaminaufnahmestellen (TaClo 25 µM) and at Dopaminaufnahmestellen (TaClo 50 µM) was 0.05 ± 0.01 pmoles/ Kulturschale each time.

As for `CN1CC=C(c2ccccc2)CC1` [MPTP, 1-Methyl-4-phenyl-1,2,3,6-tetrahydropyridin, reference compound], in assay [1] (MPTP 174 µg in 2 µl intranigral, 1 and 3 weeks, L-DOPA 100 mg/kg i.p.), the “Kompensation des Neuronenverlusts durch L-DOPA” value is “kompensieren konnte”. The “DOPAC-Wert auf der läsionierten Seite vor L-DOPA” value in assay [1] (MPTP 174 µg in 2 µl intranigral, 1 week, intact side about 20%, p < 0.05) is listed as roughly 6%. Also, the “Erniedrigung des DOPAC-Signals” value in assay [1] (MPTP 174 µg in 2 µl intranigral, 3 weeks) is “statistisch nicht mehr signifikant”.

These data come from patent EP0793496B1, “USE OF HALOGENATED beta-[…] MODEL […] PRODUCE NEURODEGENERATIVE DISORDERS” (priority 1994, dated 1996).
